In US20250228864A1, “THERAPIES FOR THE TREATMENT OF INFLAMMATORY BOWEL DISEASE” (Gilead Sciences, Inc., priority 2023, published 2025):

Experiment: First-in-human Part A: plasma PK after single ascending doses of Formula (III)
Type: in vivo
Experimental: This was a 3-part study to evaluate pharmacokinetics, safety, tolerability, and pharmacodynamics of the Formula (III) compound in healthy volunteers. • To understand the single-dose PK, safety, tolerability, and PD of Formula (III) and its active metabolite, subjects in Part A received a single dose of Formula (III) in the fasting state in a dose-escalating manner. […]
Formula (III) is a prodrug of Formula (I). Plasma concentrations of Formula (III) metabolite was determined, and PK parameters estimated. Plasma concentrations of Formula (III) and/or its metabolites were determined, and PK explored, as appropriate.
Concentrations of Formula (III) and the metabolite, in plasma samples were determined using fully validated high-performance liquid chromatography-tandem mass spectrometry (LC-MS/MS) bioanalytical methods. All samples were analyzed in the timeframe supported by frozen stability storage data. […]

CCOC(=O)[C@H](Cc1ccc(-n2c(=O)c3ccncc3n(C)c2=O)c2ncccc12)NC(=O)c1c(C)cc(N2CCOC[C@@H]2C(F)(F)F)cc1F (atropisomer, axis not shown) [Formula (III)]
plasma exposures of the prodrug Formula (III) compared with the active metabolite: negligible
